One experiment deals with Rat recombinant KHK-C (Rattus norvegicus (Rat), UniProt Q02974). As to the kind of experiment: KHK inhibition assay, recombinant isozyme (coupled pyruvate kinase/LDH, NADH absorbance 340 nm). The experiment is classed as biochemical. The settings on record: recombinant isozyme 6 nM, fructose 2 mM, ATP 0.1 mM. Here is the method:
(§1) Determination of Human and Rat recombinant KHK-A and KHK-C isozyme IC50 Values
(§2) An assay reagent cocktail was prepared by combining NADH, water, TEA, KCl, MgCl2, PEP, ATP, DTT, coupling enzymes (pyruvate kinase and lactate dehydrogenase, LDH) to final concentrations as shown in Table B.
(§3) To this was added the relevant KHK isozyme to a final concentration of 6 nM. Aliquots of each inhibitor compound were diluted via 5-fold serial dilutions to produce final concentrations ranging from 1000 nM to 0.064 nM. The inhibitor aliquots were added to the assay reagent cocktail containing KHK with fructose (at a concentration of 2 mM) in a 96-well plate. The absorbance at 340 nm was measured via spectrophotometry and inhibition was analyzed using non-linear regression.

In the next experiment the target is Rat recombinant KHK-A (Rattus norvegicus (Rat), UniProt Q02974). The experiment is described as above. The experiment is classed as biochemical. The settings on record: recombinant isozyme 6 nM, fructose 2 mM, ATP 0.1 mM. Here is the method:
as §1, §2, §3

For the next experiment, the target named is Human recombinant KHK-A (Homo sapiens (Human), UniProt P50053). Described as above. The experiment is classed as biochemical. The note with it: recombinant isozyme 6 nM, fructose 2 mM, ATP 0.1 mM. Here is the method:
as §1, §2, §3

Another experiment concerns the target Human recombinant KHK-C (Homo sapiens (Human), UniProt P50053). The experiment is described as above. The note with it: recombinant isozyme 6 nM, fructose 2 mM, ATP 0.1 mM. The class given is biochemical. Here is the method: as §1, §2, §3
The target of another experiment is human KHK in HepG2 Cells (Homo sapiens (Human), UniProt P50053). As to the kind of experiment: Cell-based potency assay (HepG2 assay), F1P by LC/MS. The settings on record: fructose 20 mM, 20 min, F1P produced. As for the experimental part: Testing inhibition effect of compounds against human KHK in HepG2 Cells
HepG2 cells were grown in RPMI1640 supplemented media on 100 mm plates to near confluency (about 5-8×10^6 cells). The growth media was aspirated and 4 mL trypsin solution (0.25% (w/v)+0.25% (w/v) EDTA) was added, followed by incubation at 37° C. for 5-10 mins. The cells were pelleted and resuspended in 2 mL complete media.
The cells were then placed in a 96 well plate at 20,000-50,000 cells per well and grown for 20-28 hours at 37° C. to allow adherence.
Inhibitor compounds were diluted in DMSO to 50 μM, then serially diluted with MEM media (ThermoFisher). Final inhibitor concentration ranged from 1000 nM to 0.064 nM (5-fold dilution series).
The RPMI medium was removed from the plate of confluent cells. The plate was then incubated for 35 min at 37°, after which were added 0.1 mL of the diluted inhibitor compounds in MEM with fructose, 0.1 mL of MEM media without inhibitor compound or fructose, or trypsin; yielding a final concentration of fructose at 20 mM. The plate was subsequently incubated for 20 min at 37°, then placed on ice to stop the reactions.
Next, 200 μL of cold 80% (v/v) methanol:water was added to all wells, except the controls used to enumerate cell count. The plate was vortexed and cell debris removed by centrifugation. To measure F1P produced, the resulting supernatant fraction was analyzed by LC/MS.

pIC50: −log10 of the molar value.

Chain of Human recombinant KHK-C (P50053 whole entry): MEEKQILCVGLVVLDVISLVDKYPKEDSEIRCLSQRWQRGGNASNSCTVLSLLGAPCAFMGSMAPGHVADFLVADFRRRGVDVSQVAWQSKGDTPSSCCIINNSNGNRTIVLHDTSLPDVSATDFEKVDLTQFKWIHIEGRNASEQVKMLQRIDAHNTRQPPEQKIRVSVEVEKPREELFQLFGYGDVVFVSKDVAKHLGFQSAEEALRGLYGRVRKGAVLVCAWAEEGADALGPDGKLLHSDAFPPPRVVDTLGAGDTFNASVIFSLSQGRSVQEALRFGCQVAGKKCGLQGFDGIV
Chain of human KHK in HepG2 Cells (P50053 whole entry): as above
Chain of Rat recombinant KHK-A (Q02974 other isoform, or with tags, fused parts or gaps): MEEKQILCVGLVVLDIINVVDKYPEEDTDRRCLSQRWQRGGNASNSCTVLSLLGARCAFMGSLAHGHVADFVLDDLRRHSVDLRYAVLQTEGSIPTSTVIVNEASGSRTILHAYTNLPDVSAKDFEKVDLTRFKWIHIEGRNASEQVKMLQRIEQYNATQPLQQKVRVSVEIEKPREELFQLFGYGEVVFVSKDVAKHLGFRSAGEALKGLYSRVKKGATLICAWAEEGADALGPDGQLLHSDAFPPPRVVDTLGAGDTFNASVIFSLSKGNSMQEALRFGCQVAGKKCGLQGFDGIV
Chain of Rat recombinant KHK-C (Q02974 whole entry): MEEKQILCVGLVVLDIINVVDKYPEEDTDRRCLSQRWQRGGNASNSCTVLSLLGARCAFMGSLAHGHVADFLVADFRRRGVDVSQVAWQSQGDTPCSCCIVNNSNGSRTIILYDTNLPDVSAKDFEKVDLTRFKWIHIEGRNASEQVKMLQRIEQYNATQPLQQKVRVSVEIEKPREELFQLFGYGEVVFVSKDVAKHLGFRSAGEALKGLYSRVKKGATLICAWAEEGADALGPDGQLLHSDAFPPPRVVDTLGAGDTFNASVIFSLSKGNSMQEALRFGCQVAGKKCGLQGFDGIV
Chain of Human recombinant KHK-A (P50053 other isoform, or with tags, fused parts or gaps): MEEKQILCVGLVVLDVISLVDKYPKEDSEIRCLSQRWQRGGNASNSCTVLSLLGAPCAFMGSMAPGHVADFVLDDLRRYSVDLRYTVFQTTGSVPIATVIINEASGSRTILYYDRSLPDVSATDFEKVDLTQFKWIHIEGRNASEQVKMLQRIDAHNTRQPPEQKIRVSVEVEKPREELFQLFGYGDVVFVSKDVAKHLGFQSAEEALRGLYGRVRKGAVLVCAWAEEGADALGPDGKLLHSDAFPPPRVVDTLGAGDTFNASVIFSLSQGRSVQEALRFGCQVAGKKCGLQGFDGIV

Turning to `CCc1c(-c2cnn(CC(=O)N3CCNCC3)c2)nc(N2CC[C@@H]2C)nc1C(F)(F)F` [Compound A6, 2-(4-{2-[(S)-2-methyl-1-azetidinyl]-5-ethyl-6-(trifluoromethyl)-4-pyrimidinyl}-1-pyrazolyl)-1-(1-piperazinyl)-1-ethanone], the negative-log IC50 (pIC50) is 7.96 at Rat recombinant KHK-C; 8.64 on Rat recombinant KHK-A; 8.06 on Human recombinant KHK-A; 7.80 on Human recombinant KHK-C; 7.15 on human KHK in HepG2 Cells.

As for `Cc1c(-c2cnn(CC(=O)N3CCNCC3)c2)nc(N2CC[C@@H]2C(F)(F)F)nc1C(F)(F)F` [Compound A1, 2-(4-{2-[(R)-2-(trifluoromethyl)-1-azetidinyl]-5-methyl-6-(trifluoromethyl)-4-pyrimidinyl}-1-pyrazolyl)-1-(1-piperazinyl)-1-ethanone], the pIC50 was 8.05 on Rat recombinant KHK-C; 8.66 at Rat recombinant KHK-A; 8.22 at Human recombinant KHK-A; 8.39 on Human recombinant KHK-C; 8.15 against human KHK in HepG2 Cells.

In the case of `C[C@H]1CCN1c1nc(-c2cnn(CC(=O)N3CCNCC3)c2)cc(C(F)F)n1` [Compound A7, 2-(4-{2-[(S)-2-methyl-1-azetidinyl]-6-(difluoromethyl)-4-pyrimidinyl}-1-pyrazolyl)-1-(1-piperazinyl)-1-ethanone], the pIC50 is 6.92 at Rat recombinant KHK-C; 7.34 at Rat recombinant KHK-A; 6.80 on Human recombinant KHK-A; 6.64 at Human recombinant KHK-C; 6.48 on human KHK in HepG2 Cells.

For `CCc1c(-c2cnn(C3CN(C)C3)c2)nc(N2C[C@@H](O)[C@@H]2C)nc1C(F)(F)F` [Compound A11, (2S,3R)-1-{5-ethyl-4-[1-(1-methyl-3-azetidinyl)-4-pyrazolyl]-6-(trifluoromethyl)-2-pyrimidinyl}-2-methyl-3-azetidinol], the pIC50 is 8.68 at Rat recombinant KHK-C; 9.02 on Rat recombinant KHK-A; 8.07 on Human recombinant KHK-A; 8.68 on Human recombinant KHK-C; 8.40 on human KHK in HepG2 Cells.

On to `Cc1c(-c2cnn(CC(=O)N3CCNCC3)c2)nc(N2CC[C@@H]2C)nc1C(F)F` [Compound A24, 2-(4-{2-[(S)-2-methyl-1-azetidinyl]-6-(difluoromethyl)-5-methyl-4-pyrimidinyl}-1-pyrazolyl)-1-(1-piperazinyl)-1-ethanone], for which the pIC50 is 7.77 at Rat recombinant KHK-C; 8.28 at Rat recombinant KHK-A; 7.51 at Human recombinant KHK-A; 7.83 at Human recombinant KHK-C; 7.55 against human KHK in HepG2 Cells.

For the compound `Cc1c(-c2cnn(CC(=O)N3CCNCC3)c2)nc(N2CC[C@@H]2C(F)F)nc1C(F)(F)F` [Compound A43, 2-(4-{2-[(R)-2-(difluoromethyl)-1-azetidinyl]-5-methyl-6-(trifluoromethyl)-4-pyrimidinyl}-1-pyrazolyl)-1-(1-piperazinyl)-1-ethanone], the pIC50 on Rat recombinant KHK-C was 7.92; on Rat recombinant KHK-A, 8.17; on Human recombinant KHK-A, 8.35; at Human recombinant KHK-C, 8.10; against human KHK in HepG2 Cells, 7.64.

Turning to `Cc1c(-c2cnn(CC(=O)N3CCNCC3)c2)nc(N2CC[C@@H]2C(F)(F)F)nc1C(F)F` [Compound A18, 2-(4-{2-[(R)-2-(trifluoromethyl)-1-azetidinyl]-6-(difluoromethyl)-5-methyl-4-pyrimidinyl}-1-pyrazolyl)-1-(1-piperazinyl)-1-ethanone], the pIC50 on Rat recombinant KHK-C is 8.02; at Rat recombinant KHK-A, 8.39; on Human recombinant KHK-A, 8.28; on Human recombinant KHK-C, 8.13; against human KHK in HepG2 Cells, 7.96.

Regarding `C[C@H]1[C@H](O)CN1c1nc(-c2cnn(C3CN(C)C3)c2)c(F)c(C(F)(F)F)n1` [Compound A27, (2S,3R)-1-{5-fluoro-4-[1-(1-methyl-3-azetidinyl)-4-pyrazolyl]-6-(trifluoromethyl)-2-pyrimidinyl}-2-methyl-3-azetidinol], the pIC50 on Human recombinant KHK-C was 8.39; against human KHK in HepG2 Cells, 8.05.

For `Cc1c(-c2cnn(CC(=O)N3CCNCC3)c2)nc(N2CC[C@@H]2C(F)F)nc1C(F)F` [Compound A42, 2-(4-{2-[(R)-2-(difluoromethyl)-1-azetidinyl]-6-(difluoromethyl)-5-methyl-4-pyrimidinyl}-1-pyrazolyl)-1-(1-piperazinyl)-1-ethanone], the pIC50 is 7.59 at Rat recombinant KHK-C; 8.00 at Rat recombinant KHK-A; 7.89 on Human recombinant KHK-A; 7.74 on Human recombinant KHK-C; 7.37 on human KHK in HepG2 Cells.

With `COc1c(-c2cnn(CC(=O)N3CCNCC3)c2)nc(N2CC[C@@H]2C(F)(F)F)nc1C(F)(F)F` [Compound A28, 2-(4-{2-[(R)-2-(trifluoromethyl)-1-azetidinyl]-5-methoxy-6-(trifluoromethyl)-4-pyrimidinyl}-1-pyrazolyl)-1-(1-piperazinyl)-1-ethanone], the pIC50 on Rat recombinant KHK-C was 7.70; at Rat recombinant KHK-A, 8.39; at Human recombinant KHK-A, 7.82; at Human recombinant KHK-C, 7.74.

Turning to `O=C(Cn1cc(-c2cc(C(F)(F)F)nc(N3CC[C@@H]3C(F)(F)F)n2)cn1)N1CCNCC1` [Compound A2, 2-(4-{2-[(R)-2-(trifluoromethyl)-1-azetidinyl]-6-(trifluoromethyl)-4-pyrimidinyl}-1-pyrazolyl)-1-(1-piperazinyl)-1-ethanone], the pIC50 is 7.59 on Rat recombinant KHK-C; 8.05 at Rat recombinant KHK-A; 7.87 at Human recombinant KHK-A; 7.51 at Human recombinant KHK-C; 7.32 on human KHK in HepG2 Cells.

Regarding `O=C(Cn1cc(-c2nc(N3CC[C@@H]3C(F)F)nc(C(F)(F)F)c2Cl)cn1)N1CCNCC1` [Compound A38, 2-(4-{2-[(R)-2-(difluoromethyl)-1-azetidinyl]-5-chloro-6-(trifluoromethyl)-4-pyrimidinyl}-1-pyrazolyl)-1-(1-piperazinyl)-1-ethanone], the pIC50 at Rat recombinant KHK-C is 7.85; at Rat recombinant KHK-A, 8.14; on Human recombinant KHK-A, 8.19; on Human recombinant KHK-C, 8.44; at human KHK in HepG2 Cells it was 7.44.

Take `O=C(Cn1cc(-c2cc(C(F)(F)F)nc(N3CC[C@@H]3C(F)F)n2)cn1)N1CCNCC1` [Compound A33, 2-(4-{2-[(R)-2-(difluoromethyl)-1-azetidinyl]-6-(trifluoromethyl)-4-pyrimidinyl}-1-pyrazolyl)-1-(1-piperazinyl)-1-ethanone]: the pIC50 at Rat recombinant KHK-C was 7.07; on Rat recombinant KHK-A, 7.64; at Human recombinant KHK-A it was 7.19; at Human recombinant KHK-C, 7.04.

For `COc1c(-c2cnn(C3CN(C)C3)c2)nc(N2C[C@@H](O)[C@@H]2C)nc1C(F)F` [Compound A19, (2S,3R)-1-{6-(difluoromethyl)-5-methoxy-4-[1-(1-methyl-3-azetidinyl)-4-pyrazolyl]-2-pyrimidinyl}-2-methyl-3-azetidinol], the pIC50 was 7.77 at Rat recombinant KHK-C; 8.18 at Rat recombinant KHK-A; 7.57 at Human recombinant KHK-A; 7.97 at Human recombinant KHK-C; 7.64 on human KHK in HepG2 Cells.
